# Test results as given in patent publication US20240408086A1, “USE OF LUVADAXISTAT FOR THE TREATMENT OF COGNITIVE IMPAIRMENT” (TAKEDA PHARMACEUTICAL COMPANY LIMITED, priority 2021, published 2024).
# Test system: adult patients with persistent negative symptoms of schizophrenia
# Type: in vivo, human
# Text: To assess changes in cognitive impairment associated with schizophrenia (CIAS), secondary endpoints included the 12-week change from baseline in the Brief Assessment of Cognition in Schizophrenia (BACS) composite score, a measure of cognition across multiple domains, and the Schizophrenia Cognition Rating Scale (SCORS) score, a measure of day-to-day cognitive functioning requiring input from an adult informant. Secondary endpoints were not corrected for multiplicity.
# The BACS is specifically designed to measure treatment-related improvements in cognition and includes alternate forms. BACS is a reliable and sensitive measure of cognitive function in schizophrenia. The BACS is a cognition assessment battery that assesses 6 domains of cognitive function found to be consistently impaired in schizophrenia: verbal memory; working memory; motor speed; attention; executive functions; and verbal fluency. The primary measure from each test of the BACS is standardized by creating T-scores whereby the mean of the test session of a matched reference healthy participant is set to 50 and the standard deviation set to 10.
# [1] = 50 mg once daily, MMRM, preliminary analysis
# [2] = 50 mg once daily, preliminary analysis
smiles,measurement,setting,value
"O=c1[nH]nc(CCc2ccc(C(F)(F)F)cc2)cc1O [Compound (I), luvadaxistat]","BACS composite score, effect size versus placebo","50 mg once daily, 12 weeks, p=0.031, not corrected for multiplicity",0.4
same,"BACS Verbal Memory Cognition Domain, Difference from Placebo for Week 12, LS Mean (SE)","50 mg once daily, MMRM, one-sided unadjusted p 0.038, preliminary analysis",2.6 (1.43)
same,"BACS Composite Score, Difference from Placebo for Week 12, LS Mean (SE)","50 mg once daily, MMRM, one-sided unadjusted p 0.046, preliminary analysis",1.9 (1.15)
same,"BACS Verbal Memory Cognition Domain, Difference from Placebo for Week 6, LS Mean (SE)","50 mg once daily, MMRM, one-sided unadjusted p 0.071, preliminary analysis",1.9 (1.29)
same,"BACS Composite Score, Difference from Placebo for Week 6, LS Mean (SE)","50 mg once daily, MMRM, one-sided unadjusted p 0.096, preliminary analysis",1.3 (1.01)
same,"BACS Motor Speed Cognition Domain, Difference from Placebo for Week 12, LS Mean (SE)","50 mg once daily, MMRM, one-sided unadjusted p 0.101, preliminary analysis",1.5 (1.17)
same,"BACS Working Memory Cognition Domain, Difference from Placebo for Week 12, LS Mean (SE)","50 mg once daily, MMRM, one-sided unadjusted p 0.413, preliminary analysis",0.3 (1.34)
same,"BACS Motor Speed Cognition Domain, Difference from Placebo for Week 6, LS Mean (SE)","50 mg once daily, MMRM, one-sided unadjusted p 0.440, preliminary analysis",0.2 (1.26)
same,"BACS Working Memory Cognition Domain, Difference from Placebo for Week 6, LS Mean (SE)","50 mg once daily, MMRM, one-sided unadjusted p 0.507, preliminary analysis",0.0 (1.15)
same,"BACS Composite Score, Adjusted Change from Baseline to Week 6, LS Mean (SE)",[1],0.9 (0.81)
same,"BACS Composite Score, Adjusted Change from Baseline to Week 12, LS Mean (SE)",[1],2.7 (0.92)
same,"BACS Motor Speed Cognition Domain, Adjusted Change from Baseline to Week 6, LS Mean (SE)",[1],0.1 (1.00)
same,"BACS Motor Speed Cognition Domain, Adjusted Change from Baseline to Week 12, LS Mean (SE)",[1],1.0 (0.93)
same,"BACS Verbal Memory Cognition Domain, Adjusted Change from Baseline to Week 6, LS Mean (SE)",[1],0.6 (1.04)
same,"BACS Verbal Memory Cognition Domain, Adjusted Change from Baseline to Week 12, LS Mean (SE)",[1],1.9 (1.13)
same,"BACS Working Memory Cognition Domain, Adjusted Change from Baseline to Week 6, LS Mean (SE)",[1],0.0 (0.92)
same,"BACS Working Memory Cognition Domain, Adjusted Change from Baseline to Week 12, LS Mean (SE)",[1],0.9 (1.06)
same,"BACS composite score, 12-week LS mean change from baseline","50 mg once daily, placebo 2.3",4.6
same,"BACS Composite Score, Change from Baseline to Week 6, Mean (SD)",[2],1.7 (5.81)
same,"BACS Composite Score, Change from Baseline to Week 6, Median",[2],2.0
same,"BACS Composite Score, Change from Baseline to Week 12, Mean (SD)",[2],3.8 (5.91)
same,"BACS Composite Score, Change from Baseline to Week 12, Median",[2],3.0
same,"BACS Composite Score, Week 6, Mean (SD)",[2],35.4 (14.53)
same,"BACS Composite Score, Week 6, Median",[2],34.0
same,"BACS Composite Score, Week 12, Mean (SD)",[2],37.7 (13.30)
same,"BACS Composite Score, Week 12, Median",[2],37.5
same,"BACS Motor Speed Cognition Domain, Change from Baseline to Week 6, Mean (SD)",[2],1.7 (5.73)
same,"BACS Motor Speed Cognition Domain, Change from Baseline to Week 6, Median",[2],1.0
same,"BACS Motor Speed Cognition Domain, Change from Baseline to Week 12, Mean (SD)",[2],2.6 (6.80)
same,"BACS Motor Speed Cognition Domain, Change from Baseline to Week 12, Median",[2],1.0
same,"BACS Motor Speed Cognition Domain, Week 6, Mean (SD)",[2],40.6 (13.61)
same,"BACS Motor Speed Cognition Domain, Week 6, Median",[2],40.0
same,"BACS Motor Speed Cognition Domain, Week 12, Mean (SD)",[2],42.0 (12.93)
same,"BACS Motor Speed Cognition Domain, Week 12, Median",[2],41.5
same,"BACS Verbal Memory Cognition Domain, Change from Baseline to Week 6, Mean (SD)",[2],1.6 (7.40)
same,"BACS Verbal Memory Cognition Domain, Change from Baseline to Week 6, Median",[2],0.0
same,"BACS Verbal Memory Cognition Domain, Change from Baseline to Week 12, Mean (SD)",[2],3.2 (7.87)
same,"BACS Verbal Memory Cognition Domain, Change from Baseline to Week 12, Median",[2],4.0
same,"BACS Verbal Memory Cognition Domain, Week 6, Mean (SD)",[2],41.7 (11.59)
same,"BACS Verbal Memory Cognition Domain, Week 6, Median",[2],44.5
same,"BACS Verbal Memory Cognition Domain, Week 12, Mean (SD)",[2],42.9 (12.41)
same,"BACS Verbal Memory Cognition Domain, Week 12, Median",[2],43.5
same,"BACS Working Memory Cognition Domain, Change from Baseline to Week 6, Mean (SD)",[2],1.0 (6.60)
same,"BACS Working Memory Cognition Domain, Change from Baseline to Week 6, Median",[2],0.0
same,"BACS Working Memory Cognition Domain, Change from Baseline to Week 12, Mean (SD)",[2],2.1 (6.61)
same,"BACS Working Memory Cognition Domain, Change from Baseline to Week 12, Median",[2],1.0
same,"BACS Working Memory Cognition Domain, Week 6, Mean (SD)",[2],40.8 (14.10)
same,"BACS Working Memory Cognition Domain, Week 6, Median",[2],42.0
same,"BACS Working Memory Cognition Domain, Week 12, Mean (SD)",[2],42.0 (13.95)
same,"BACS Working Memory Cognition Domain, Week 12, Median",[2],42.5
same,"BACS Attention Cognition Domain, Change from Baseline to Week 6, Mean (SD)","50 mg, Week 6",0.9 (7.74)
same,"BACS Attention Cognition Domain, Change from Baseline to Week 6, Median","50 mg, Week 6",0.0
same,"BACS Attention Cognition Domain, Week 6, Mean (SD)","50 mg, Week 6",36.0 (14.78)
same,"BACS Attention Cognition Domain, Week 6, Median","50 mg, Week 6",34.0
same,"BACS Executive Functions Cognition Domain, Change from Baseline to Week 6, Mean (SD)","50 mg, Week 6",1.6 (10.55)
same,"BACS Executive Functions Cognition Domain, Change from Baseline to Week 6, Median","50 mg, Week 6",2.0
same,"BACS Executive Functions Cognition Domain, Week 6, Mean (SD)","50 mg, Week 6",44.9 (11.66)
same,"BACS Executive Functions Cognition Domain, Week 6, Median","50 mg, Week 6",48.5
same,"BACS Verbal Fluency Cognition Domain, Change from Baseline to Week 6, Mean (SD)","50 mg, Week 6",−0.2 (5.57)
same,"BACS Verbal Fluency Cognition Domain, Change from Baseline to Week 6, Median","50 mg, Week 6",0.0
same,"BACS Verbal Fluency Cognition Domain, Week 6, Mean (SD)","50 mg, Week 6",39.9 (10.86)
same,"BACS Verbal Fluency Cognition Domain, Week 6, Median","50 mg, Week 6",38.0
same,"BACS Attention Cognition Domain, Adjusted Change from Baseline to Week 6, LS Mean (SE)","50 mg, Week 6, MMRM",1.0 (0.90)
